Experimental data as given in patent US8623821B2, “Zymogen activators” (Genentech, Inc., priority 2011, dated 2014).
Each block holds one compound with its values, some of them ahead of it. Where a SMILES comes first, the peptide text is derived from it. Bridges are numbered along the chain shown (N, C = ends). Where no end group is shown, it is not given here.

Columns and labels:
Peptide solubility = type: physicochemical
prethrombin-2 = target: T1, prethrombin-2 (Homo sapiens, UniProt P00734); experiment: Zymogen serine protease activity assay (Ile-Pro-Arg-pNA hydrolysis); type: biochemical; details: 100 nM prethrombin-2, 2 mM Ile-Pro-Arg-pNA, peptide titration
T1 construct: Zymogen serine proteases prethrombin-2 and Protein C were purchased from Haematologic Technologies, Inc; purchased Haematologic Technologies, Inc. (Essex Junction, Vt.)
Protocol: (§1) Zymogen serine proteases prethrombin-2 and Protein C were purchased from Haematologic Technologies, Inc. (Essex Junction, Vt.). Kinetic assays were carried out in 20 mM Hepes, 150 mM NaCl, 5 mM CaCl2, 0.01% Triton X-100, pH 7.2. All reactions contained 100 nM of enzyme plus 2 mM Ile-Pro-Arg-pNA substrate. IVGG.147A was titrated and the initial rates of substrate hydrolysis were measured in clear bottom 96-well plates using 405 nm absorbance on a SpectraMax Plus (Molecular Devices, Inc.).
(§2) The IVGG.14 peptide activator of pro-HGF took advantage of the canonical trypsin-like activation mechanism in order to allosterically activate binding of the serine protease-like domain within pro-HGF to Met. Given this activation mechanism is highly conserved among zymogens of the trypsin-like family of serine proteases and the fact that these proteins share a high degree of structural homology within the serine protease-like domains as well as the activation pockets, ZAPs for pro-HGF were analyzed for ability allosterically activate other zymogen serine proteases.

Protein C = target: T2, Protein C (Homo sapiens, UniProt P04070); experiment: as above; type: biochemical; details: 100 nM Protein C, 2 mM Ile-Pro-Arg-pNA, peptide titration
T2 construct: purchased Haematologic Technologies, Inc. (Essex Junction, Vt.)
Protocol: as §1, §2

scHGF [1] = target: T3, scHGF (Homo sapiens, UniProt P14210, R494E); experiment: In vitro wound closure assay, HeLa cell migration in the presence of scHGF; type: cell-based; set-up: Full-length recombinant HGF proteins were expressed in 1-liter fermentation cultures of Chinese hamster ovary (CHO) cells; made in house; host or cells: CHO cells (scHGF); Met is endogenous in HeLa cells; details: HeLa cells, scHGF present, read-out: EC50 of HeLa cell migration response
Excerpt: (§3) Cellular assays were used to address whether the optimized ZAPtides act as allosteric activators of pro-HGF and stimulate Met signaling in biologically relevant settings of cell survival and migration. […] Importantly, ZAPtides required the presence of scHGF as well as induced […] cell survival that was antagonized by an HGF-blocking anti-Met antibody, each confirming Met pathway selectivity.

scHGF [2] = target: T3, scHGF; experiment: BxPC-3 cell survival assay, peptide titrations in the presence of scHGF; type: cell-based; set-up: Full-length recombinant HGF proteins were expressed in 1-liter fermentation cultures of Chinese hamster ovary (CHO) cells; made in house; host or cells: CHO cells (scHGF); details: BxPC-3 cells, serum starvation, 72 h, alamar Blue; read-out: EC50 of activation of scHGF, cell survival
Protocol: BxPC-3 cells were obtained from ATCC and maintained in cell culture medium (RPMI, 10% FBS (Sigma), 50 U/ml penicillin/50 μg/ml streptomycin, 2 mM glutamine). For the survival assay, cells were plated at 10,000 cells/well in 96 well tissue culture plates (Falcon 353072) in 50 μl assay diluent (RPMI, 0.1% BSA (Sigma) 50 U/ml penicillin/50 μg/ml streptomycin, 2 mM glutamine). Cells were allowed to attach for 1-2 h in a 37° C. CO2 incubator. Human HGF proteins (HGF, scHGF or scHGF plus peptide titrations) were pre-incubated at room temperature in assay diluent. HGF/peptide mixtures were added to cells in microtiter plates in triplicate at 50 μl per well and plates were incubated at 37° C. in a CO2 incubator. Final concentrations of HGF variants were 400 ng/ml and peptide concentrations were titrated accordingly. After 72 h, 25 μl alamar Blue (Serotec, BUF012B) was added to each well and incubate an additional 2 h at 37° C. in a CO2 incubator. Plates were agitated vigorously for 10 min at room temperature, and fluorescence was read at 530-590 nm in a fluorescent plate reader.
Using Bx-PC3 cells, peptide titrations in the presence of scHGF were performed and observed robust activation was seen of scHGF signaling through Met, which reached levels equivalent HGF-induced signaling.
as §3

[3] = target: zymogen-like pro-MSP β-chain (zMSP β); experiment: Activation of zMSP β binding to RON; details: activation of zMSP β to bind RON
Protocol: The phage approach was also tested against pro-Macrophage Stimulating Protein (pro-MSP), another plasminogen-related growth factor, which, following proteolytic cleavage, signals through the RON receptor, having important roles in inflammation and cancer. Using a new cyclic library based on ZAP.03 (ZAPtide3 Library) and the described selection method a ZAPtide was discovered, ZAP3.2 that was specific for activating the zymogen-like pro-MSP β-chain (zMSP β) to bind RON with an AC50 of 134 μM.

T3 sequence (P14210 32-728 R494E): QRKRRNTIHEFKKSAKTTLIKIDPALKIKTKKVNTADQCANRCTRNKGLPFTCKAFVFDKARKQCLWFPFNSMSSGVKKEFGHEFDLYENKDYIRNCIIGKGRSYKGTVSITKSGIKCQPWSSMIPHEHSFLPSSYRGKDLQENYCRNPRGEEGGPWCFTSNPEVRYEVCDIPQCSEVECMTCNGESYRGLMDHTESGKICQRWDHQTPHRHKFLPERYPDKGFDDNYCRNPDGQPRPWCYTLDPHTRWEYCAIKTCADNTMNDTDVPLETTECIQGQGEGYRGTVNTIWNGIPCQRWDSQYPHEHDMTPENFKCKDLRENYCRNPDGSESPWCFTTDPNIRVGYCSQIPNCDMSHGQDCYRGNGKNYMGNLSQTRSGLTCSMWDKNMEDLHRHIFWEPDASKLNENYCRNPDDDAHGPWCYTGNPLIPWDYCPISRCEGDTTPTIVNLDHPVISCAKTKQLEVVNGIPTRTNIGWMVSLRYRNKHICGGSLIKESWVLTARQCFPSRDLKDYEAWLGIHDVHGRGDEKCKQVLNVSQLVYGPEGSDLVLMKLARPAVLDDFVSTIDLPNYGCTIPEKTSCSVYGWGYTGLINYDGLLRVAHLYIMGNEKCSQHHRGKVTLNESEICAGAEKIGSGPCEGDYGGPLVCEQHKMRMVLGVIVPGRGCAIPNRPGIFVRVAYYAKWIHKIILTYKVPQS
T2 sequence (P04070 19-461 limits assumed): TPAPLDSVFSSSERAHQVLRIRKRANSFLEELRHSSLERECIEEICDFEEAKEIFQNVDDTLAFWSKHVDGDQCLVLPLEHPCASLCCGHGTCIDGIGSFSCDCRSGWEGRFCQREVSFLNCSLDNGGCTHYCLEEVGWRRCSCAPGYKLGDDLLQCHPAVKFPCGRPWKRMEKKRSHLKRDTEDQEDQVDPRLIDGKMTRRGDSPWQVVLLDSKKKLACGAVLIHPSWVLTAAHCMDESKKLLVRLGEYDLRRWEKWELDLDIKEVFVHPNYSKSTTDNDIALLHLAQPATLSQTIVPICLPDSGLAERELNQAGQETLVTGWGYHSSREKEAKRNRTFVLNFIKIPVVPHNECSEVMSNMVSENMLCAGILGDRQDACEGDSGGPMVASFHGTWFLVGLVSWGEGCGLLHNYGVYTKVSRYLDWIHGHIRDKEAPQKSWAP

solubility, in words (Peptide solubility): exceptionally soluble
initial rate of substrate hydrolysis (Vi) (prethrombin-2): significantly increased
initial rate of substrate hydrolysis (Vi) (Protein C): significantly increased
Compound: CC[C@H](C)[C@H](N)C(=O)N[C@H](C(=O)NCC(=O)NCC(=O)N[C@@H](Cc1ccc(O)cc1)C(=O)N1CCC[C@H]1C(=O)N[C@@H](C)C(=O)N[C@@H](Cc1c[nH]c2ccccc12)C(=O)N[C@@H](CCSC)C(=O)N[C@@H](CC(=O)O)C(=O)N[C@H](C(N)=O)C(C)C)C(C)C [IVGG.147A, I V G G Y P A W M D V] (H-IVGGYPAWMDV-NH2; N-terminus assumed)

EC50 (scHGF [1]): 60 nM
Compound: CC[C@H](C)[C@H](N)C(=O)N[C@H](C(=O)NCC(=O)NCC(=O)N[C@H]1CSSC[C@@H](C(=O)N[C@H](C(N)=O)[C@@H](C)CC)NC(=O)[C@H](CCC(=O)O)NC(=O)[C@H](CCC(=O)O)NC(=O)[C@H](CCCNC(=N)N)NC(=O)[C@H](CC(=O)O)NC(=O)[C@H](CCSC)NC(=O)[C@H](Cc2c[nH]c3ccccc23)NC(=O)[C@H](Cc2ccc(O)cc2)NC(=O)[C@@H]2CCCN2C1=O)[C@@H](C)CC [ZAP.03, I I G G C P Y W M D R E E C I] (H-IIGGCPYWMDREECI-NH2; disulfide 5-14)
EC50 (scHGF [2]): 400 nM

AC50 [3]: 134000 nM
Compound: ZAP3.2: ZAPtide from the cyclic ZAPtide3 Library based on ZAP.03, activating zymogen-like pro-MSP β-chain (zMSP β) to bind RON (IVGGEPVWYVW; not fully specified)
